Laboratory results published in DBAASP.
≈ marks a conversion by molar mass, not a printed value. Each block holds one compound with its values, some of them ahead of it.

Experiments:
Test in all cases: ≥ marks a high value that may be exact or a test limit, other limits are often not marked, values filed in µg/mL are converted to µM
[1] = tested on: Bacillus subtilis ATCC 6633
[2] = tested on: Candida albicans ATCC 2002
[3] = tested on: Staphylococcus aureus ATCC 2592
[4] = tested on: Pseudomonas fluorescens ATCC 13525
Enterococcus faecalis = tested on: Enterococcus faecalis
Escherichia coli W3110 = tested on: Escherichia coli W3110
[5] = tested on: Streptococcus sobrinus ATCC 33478
[6] = tested on: Pseudomonas aeruginosa PAK
[7] = tested on: Streptococcus sanguinis NY101
[8] = tested on: Streptococcus mutans UA159
Staphylococcus aureus = tested on: Staphylococcus aureus
[9] = tested on: Listeria monocytogenes ATCC BAA-751
[10] = tested on: Salmonella enterica subsp. enterica serovar Typhimurium ATCC 14028
[11] = tested on: Staphylococcus aureus ATCC 29213
[12] = tested on: Escherichia coli ATCC 25922
[13] = tested on: Staphylococcus aureus ATCC 43300
[14] = tested on: Bacillus cereus ATCC 11778
[15] = tested on: Staphylococcus aureus ATCC 25923
[16] = tested on: Pseudomonas aeruginosa ATCC 9027
[17] = tested on: Cutibacterium acnes ATCC 11828
[18] = tested on: Candida albicans ATCC 90028
Acinetobacter baumannii = tested on: Acinetobacter baumannii
[19] = tested on: Cutibacterium acnes ATCC 31766
[20] = tested on: Cutibacterium acnes ATCC 15725
[21] = tested on: Escherichia coli ATCC 25726
[22] = tested on: Cutibacterium acnes ATCC 29903
[23] = tested on: Cutibacterium acnes ATCC 32548
[24] = tested on: Cutibacterium acnes ATCC 18380
[25] = tested on: Cutibacterium acnes ATCC 50247
[26] = tested on: Cutibacterium acnes ATCC 33257
[27] = tested on: Escherichia coli O18:K1:H7 Bort
Streptococcus agalactiae = tested on: Streptococcus agalactiae
[28] = tested on: Pseudomonas aeruginosa ATCC 27853
Enterococcus faecium = tested on: Enterococcus faecium
Serratia marcescens = tested on: Serratia marcescens
[29] = tested on: Corynebacterium diphtheriae ATCC 8024
[30] = tested on: Staphylococcus aureus ATCC 6538
[31] = tested on: Micrococcus luteus ATCC 9341
[32] = tested on: Shigella flexneri ATCC 203
[33] = tested on: Candida albicans ATCC 36232
[34] = tested on: Staphylococcus epidermidis ATCC 12228
[35] = tested on: Escherichia coli ATCC 2592

SMILES: CC[C@H](C)[C@H](NC(=O)[C@H](C)NC(=O)[C@@H](NC(=O)[C@@H]1CCCN1C(=O)[C@H](CC(C)C)NC(=O)[C@@H](NC(=O)[C@H](CC(N)=O)NC(=O)[C@H](C)NC(=O)[C@H](C)NC(=O)[C@@H](NC(=O)[C@H](CCCCN)NC(=O)[C@H](CC(C)C)NC(=O)[C@H](C)NC(=O)[C@@H](NC(=O)CNC(=O)[C@H](Cc1ccccc1)NC(=O)[C@@H](N)Cc1ccccc1)[C@@H](C)O)[C@@H](C)CC)C(C)C)[C@@H](C)O)C(=O)N[C@H]1CSSC[C@@H](C(=O)O)NC(=O)[C@H](CCCCN)NC(=O)[C@H](CCCCN)NC(=O)[C@H](CC(C)C)NC(=O)[C@H]([C@@H](C)CC)NC(=O)[C@H](CCCCN)NC1=O [FFGTALKIAANVLPTAICKILKKC]
MIC [1]: 2.34 µM (≈ 6 µg/mL)
MIC [2]: 19.5 µM (≈ 50 µg/mL)
MIC [3]: 3.9 µM (≈ 9.99 µg/mL)
MIC [4]: 31.2 µM (≈ 79.9 µg/mL)

SMILES: CC[C@H](C)[C@H](NC(=O)[C@H](CCCCN)NC(=O)[C@H](CC(C)C)NC(=O)[C@H](CC(C)C)NC(=O)[C@@H]1CCCN1C(=O)[C@H](CCCCN)NC(=O)[C@H](CC(C)C)NC(=O)[C@H](CC(C)C)NC(=O)CN)C(=O)N[C@@H](C)C(=O)N[C@@H](C)C(=O)N[C@@H](CCCCN)C(=O)N[C@H](C(=O)NCC(=O)N[C@@H](CO)C(=O)N[C@@H](CC(N)=O)C(=O)N[C@@H](CC(C)C)C(=O)N[C@@H](CC(C)C)C(N)=O)C(C)C [GLLKPLLKIAAKVGSNLL]
MIC [17]: 3 µM (≈ 5.54 µg/mL)
MIC [18]: 25 µM (≈ 46.2 µg/mL)
MIC (Acinetobacter baumannii): 2.23 µM (≈ 4.11 µg/mL)
MIC [19]: 12.5 µM (≈ 23.1 µg/mL)
MIC [20]: 6 µM (≈ 11.1 µg/mL)
MIC [21]: 12.5 µM (≈ 23.1 µg/mL)
MIC [22]: 25 µM (≈ 46.2 µg/mL)
MIC [23]: 6 µM (≈ 11.1 µg/mL)
MIC [15]: 6 µM (≈ 11.1 µg/mL)
MIC [24]: 25 µM (≈ 46.2 µg/mL)
MIC [25]: 12.5 µM (≈ 23.1 µg/mL)
MIC [26]: 6 µM (≈ 11.1 µg/mL)

SMILES: CC[C@H](C)[C@H](NC(=O)[C@H](CC(=O)O)NC(=O)[C@H](CS)NC(=O)[C@@H](NC(=O)[C@@H](N)C(C)C)[C@@H](C)O)C(=O)N[C@@H](CC(C)C)C(=O)N[C@@H](CO)C(=O)N[C@H](C(=O)N[C@@H](CCC(=O)O)C(=O)N[C@@H](C)C(=O)N[C@@H](CCCCN)C(=O)NCC(=O)N[C@H](C(=O)N[C@@H](CCCCN)C(=O)N[C@@H](CC(C)C)C(N)=O)C(C)C)C(C)C [VTCDILSVEAKGVKL]
MIC [29]: ≥ 63.5 µM
MIC [30]: > 63.5 µM
MIC [1]: ≥ 63.5 µM
MIC [31]: ≥ 63.5 µM
MIC [32]: ≥ 63.5 µM
MIC [33]: ≥ 63.5 µM
MIC [34]: > 63.5 µM
MIC [35]: ≥ 63.5 µM
MIC (Staphylococcus aureus): > 63.5 µM
MIC [16]: > 63.5 µM

Other lines, results leading:

MIC (Enterococcus faecalis): ≥ 93.4 µM
MIC (Escherichia coli W3110): 23.4 µM (≈ 62.5 µg/mL)
MIC [5]: ≥ 46.7 µM
MIC [6]: ≥ 46.7 µM
MIC [7]: ≥ 46.7 µM
MIC [8]: 12 µM (≈ 32 µg/mL)
MIC (Staphylococcus aureus): > 187 µM
SMILES: CC[C@H](C)[C@H](NC(=O)[C@H](Cc1ccccc1)NC(=O)[C@H](Cc1cnc[nH]1)NC(=O)[C@H](CCCCN)NC(=O)[C@@H](NC(=O)[C@H](Cc1ccccc1)NC(=O)[C@@H]1CCCN1C(=O)[C@H](CO)NC(=O)[C@@H]1CCCN1C(=O)[C@H](CO)NC(=O)[C@@H]1CCCN1C(=O)[C@H](Cc1ccccc1)NC(=O)[C@H](Cc1cnc[nH]1)NC(=O)[C@H](CC(C)C)NC(=O)[C@H](Cc1cnc[nH]1)NC(=O)[C@H](Cc1ccccc1)NC(=O)[C@H](Cc1cnc[nH]1)NC(=O)[C@@H](N)Cc1ccccc1)[C@@H](C)CC)C(=O)N[C@@H](Cc1cnc[nH]1)C(=O)N[C@@H](CCCN=C(N)N)C(=O)N[C@@H](Cc1ccccc1)C(N)=O [FHFHLHFPSPSPFIKHFIHRF]

MIC [9]: ≥ 125 µM
MIC [10]: 62.5 µM (≈ 142 µg/mL)
MIC [11]: > 250 µM
MIC [12]: 15.2 µM (≈ 34.5 µg/mL)
MIC [13]: > 250 µM
MIC [14]: ≥ 250 µM
MIC [15]: 250 µM (≈ 567 µg/mL)
MIC [16]: 31.3 µM (≈ 70.9 µg/mL)
SMILES: CC[C@H](C)[C@H](NC(=O)CNC(=O)[C@H](CCCCN)NC(=O)[C@@H](NC(=O)[C@H](CC(C)C)NC(=O)[C@H](CO)NC(=O)CNC(=O)[C@H](CC(C)C)NC(=O)CNC(=O)[C@H](C)NC(=O)[C@H](CCCCN)NC(=O)[C@H](Cc1ccccc1)NC(=O)[C@@H](NC(=O)[C@H](CCC(=O)O)NC(=O)[C@H](CCCCN)NC(=O)[C@H](CC(C)C)NC(=O)CN)[C@@H](C)CC)C(C)C)C(=O)N[C@@H](C)C(=O)N[C@@H](C)C(=O)N[C@@H](Cc1cnc[nH]1)C(=O)N[C@H](C(=O)N[C@@H](C)C(=O)N[C@@H](CO)C(=O)O)C(C)C [GLKEIFKAGLGSLVKGIAAHVAS]

MIC [27]: 2 µM (≈ 4.3 µg/mL)
MIC (Streptococcus agalactiae): 4 µM (≈ 8.6 µg/mL)
MIC [28]: 8 µM (≈ 17.2 µg/mL)
MIC (Enterococcus faecium): 8 µM (≈ 17.2 µg/mL)
MIC (Staphylococcus aureus): 8 µM (≈ 17.2 µg/mL)
MIC (Serratia marcescens): 16 µM (≈ 34.4 µg/mL)
SMILES: CC[C@H](C)[C@H](N)C(=O)N[C@@H](CC(C)C)C(=O)N[C@@H](CCCN=C(N)N)C(=O)N[C@@H](C)C(=O)N[C@@H](Cc1c[nH]c2ccccc12)C(=O)N[C@@H](CCCCN)C(=O)N[C@@H](CCCCN)C(=O)N[C@@H](Cc1ccc(O)cc1)C(=O)NCC(=O)N1CCC[C@H]1C(=O)N[C@H](C(=O)N[C@H](C(=O)N[C@H](C(=O)N1CCC[C@H]1C(=O)N[C@H](C(=O)N[C@H](C(=O)N[C@@H](CCCN=C(N)N)C(=O)N[C@H](C(N)=O)[C@@H](C)CC)[C@@H](C)CC)[C@@H](C)CC)C(C)C)[C@@H](C)CC)[C@@H](C)CC [ILRAWKKYGPIIVPIIRI]
